Experimental data reported in patent US9422240B2, “Partially saturated nitrogen-containing heterocyclic compound” (TAISHO PHARMACEUTICAL CO., LTD, priority 2012, dated 2016).
Counter-ions that a name gives are not always drawn.

target: human PHD2 (Homo sapiens (Human), UniProt Q9GZT9); experiment: Test 2: human PHD2 inhibitory activity, fluorescence polarization assay of HIF-1α peptide proline hydroxylation; assay type: biochemical; details: read-out: Percent inhibition (% at 1 μM)
Procedure: (1) Expression and Preparation of Human PHD2
A registered sequence of human PHD2 (NM_022051) was introduced into pcDNA3.1/Hygro(+) vector (Invitrogen), and the sequence was verified. […] The suspension of disrupted cells was centrifuged at 4° C. and 100,000×g for 30 minutes and the supernatant was recovered as a cell lysate.
(2) Measurement of Human PHD2 Inhibitory Activity
The activity of human PHD2 enzyme was measured with a substrate which is a 19-residue partial peptide based on the sequence of HIF-1α; specifically, the hydroxylation of a proline residue in the peptide was measured by FP (Fluorescence Polarization).
A test compound and the substrate solution were preliminarily added onto 384-well plates and reaction was initiated by adding a human PHD2 enzyme solution (40 ng/well). After 20-min incubation at 30° C., an EDTA-containing quench solution was added and the amount of the proline residues hydroxylated via binding to an added HIF—OH antibody solution was quantified by fluorescence polarization.
The fluorescence polarization of each well was measured and the human PHD2 inhibitory activity of each test compound was calculated on the basis of the values for the test compound-free group.

Sequence of human PHD2 (Q9GZT9 whole entry): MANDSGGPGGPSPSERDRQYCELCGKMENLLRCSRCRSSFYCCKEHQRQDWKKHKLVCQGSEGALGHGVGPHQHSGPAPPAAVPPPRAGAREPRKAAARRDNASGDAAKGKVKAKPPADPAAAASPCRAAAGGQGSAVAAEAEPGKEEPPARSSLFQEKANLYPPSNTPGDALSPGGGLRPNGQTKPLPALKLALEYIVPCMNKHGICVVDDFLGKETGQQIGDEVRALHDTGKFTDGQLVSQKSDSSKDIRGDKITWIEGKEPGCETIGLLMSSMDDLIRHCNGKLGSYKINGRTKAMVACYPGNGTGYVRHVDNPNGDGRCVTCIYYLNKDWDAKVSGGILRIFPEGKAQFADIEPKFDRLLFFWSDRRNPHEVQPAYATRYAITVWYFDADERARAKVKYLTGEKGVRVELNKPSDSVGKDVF

Row | Structure (SMILES) | inhibition at 1 µM
1 | O=C(O)CNC(=O)C1=C(O)CCN(Cc2ccc(C3=CCC(F)(F)CC3)cc2)C1=O [Ex. 1-467, N-({1-[4-(4,4-difluoro-1-cyclohexen-1-yl)benzyl]-4-hydroxy-2-oxo-1,2,5,6-tetrahydro-3-pyridinyl}carbonyl)glycine sodium salt] | 95%
2 | Cc1cc(CN2CCC(O)=C(C(=O)NCC(=O)O)C2=O)ccc1OCC1CC1 [Ex. 1-468, N-({1-[4-(Cyclopropylmethoxy)-3-methylbenzyl]-4-hydroxy-2-oxo-1,2,5,6-tetrahydro-3-pyridinyl}carbonyl)glycine sodium salt] | 85%
3 | Cc1ccc(-c2ccc(CN3CCC(O)=C(C(=O)NCC(=O)O)C3=O)cc2)cn1 [Ex. 2-4, N-({4-Hydroxy-1-[4-(6-methyl-3-pyridinyl)benzyl]-2-oxo-1,2,5,6-tetrahydro-3-pyridinyl}carbonyl)glycine sodium salt] | 88%
4 | Cc1ccc(-c2ccc(CN3CCC(O)=C(C(=O)NCC(=O)O)C3=O)cc2)nc1 [Ex. 2-5, N-({4-Hydroxy-1-[4-(5-methyl-2-pyridinyl)benzyl]-2-oxo-1,2,5,6-tetrahydro-3-pyridinyl}carbonyl)glycine sodium salt] | 97%

same assay, conditions: test compound's concentration 1 μM; Test 2, fluorescence polarization assay; read-out: Percent inhibition (% at 1 μM)

Row | inhibition at 1 µM | Structure (SMILES)
5 | 94% | O=C(O)CNC(=O)C1=C(O)CCN(Cc2ccc(C3CCCCC3)c(F)c2)C1=O [Ex. 1-453]
6 | 95% | O=C(O)CNC(=O)C1=C(O)CCN(C[C@H]2C[C@H](Oc3ccc(Cl)cc3)C2)C1=O [Ex. 1-454]
7 | 98% | O=C(O)CNC(=O)C1=C(O)CCN(C[C@H]2C[C@@H](Oc3ccc(Cl)cc3)C2)C1=O [Ex. 1-456]
8 | 94% | O=C(O)CNC(=O)C1=C(O)CCN(C[C@H]2C[C@H](OCc3ccc(Cl)cc3)C2)C1=O [Ex. 1-457]
9 | 89% | Cc1ccc(O[C@H]2C[C@H](CN3CCC(O)=C(C(=O)NCC(=O)O)C3=O)C2)cc1 [Ex. 1-458]
10 | 96% | O=C(O)CNC(=O)C1=C(O)CCN(C[C@H]2C[C@H](Oc3ccc(C(F)(F)F)cc3)C2)C1=O [Ex. 1-459]
11 | 92% | O=C(O)CNC(=O)C1=C(O)CCN(C[C@H]2C[C@H](Oc3cccc(Cl)c3)C2)C1=O [Ex. 1-460]
12 | 95% | O=C(O)CNC(=O)C1=C(O)CCN(Cc2ccc(OCn3nnc4ccccc43)cc2)C1=O [Ex. 1-461]
13 | 87% | Cc1cc(C)n(COc2ccc(CN3CCC(O)=C(C(=O)NCC(=O)O)C3=O)cc2)n1 [Ex. 1-462]
14 | 99% | Cn1nc2ccccc2c1COc1ccc(CN2CCC(O)=C(C(=O)NCC(=O)O)C2=O)cc1 [Ex. 1-463]
15 | 87% | O=C(O)CNC(=O)C1=C(O)CCN(C[C@H]2CC[C@H](OCc3ccc(Cl)cn3)CC2)C1=O [Ex. 1-464]
16 | 80% | O=C(O)CNC(=O)C1=C(O)CC(CO)(CCl)N(Cc2ccc(-c3ccccc3)cc2)C1=O (centres unmarked) [Ex. 1-465, N-{[1-(4-Biphenylylmethyl)-6-(chloromethyl)-4-hydroxy-6-(hydroxymethyl)-2-oxo-1,2,5,6-tetrahydro-3-pyridinyl]carbonyl}glycine]
17 | 77% | O=C(O)CNC(=O)C1=C(O)CCN(Cc2ccc(O)c(Cl)c2)C1=O [Ex. 1-466, N-{[1-(3-Chloro-4-hydroxybenzyl)-4-hydroxy-2-oxo-1,2,5,6-tetrahydro-3-pyridinyl]carbonyl}glycine disodium]
18 | 98% | COc1cnccc1-c1ccc(CN2CCC(O)=C(C(=O)NCC(=O)O)C2=O)cc1 [Ex. 2-2, N-({4-Hydroxy-1-[4-(3-methoxy-4-pyridinyl)benzyl]-2-oxo-1,2,5,6-tetrahydro-3-pyridinyl}carbonyl)glycine sodium salt]
19 | 92% | COc1ncccc1-c1ccc(CN2CCC(O)=C(C(=O)NCC(=O)O)C2=O)cc1 [Ex. 2-3, N-({4-Hydroxy-1-[4-(2-methoxy-3-pyridinyl)benzyl]-2-oxo-1,2,5,6-tetrahydro-3-pyridinyl}carbonyl)glycine sodium salt]
20 | 93% | CS(=O)(=O)c1ccc(-c2ccc(CN3CCC(O)=C(C(=O)NCC(=O)O)C3=O)cc2)cc1 [Ex. 2-31]
